pIC50: −log10 of the molar value. Where a SMILES comes first, the peptide text is derived from it.
Target: HLA B*0801 (Homo sapiens, UniProt P01889, A93T/A95T/D138N/E176V/E187T/K202T/Q94N/R180D/S35A/V36M/Y33D/Y91F)
Assay: biochemical
Format: binding

| Compound | pIC50 |
| --- | --- |
| CC[C@H](C)[C@H](NC(=O)[C@H](CCCCN)NC(=O)[C@@H](NC(=O)[C@H](CCCNC(=N)N)NC(=O)[C@H](CC(C)C)NC(=O)[C@H](CC(N)=O)NC(=O)[C@H](CC(C)C)NC(=O)[C@@H](N)CO)[C@@H](C)CC)C(=O)N[C@@H](CC(C)C)C(=O)O [3102.0536] (H-SLNLRIKIL-OH) | 7.04 |
| CC[C@H](C)[C@H](N)C(=O)N[C@@H](CC(C)C)C(=O)N[C@@H](CCCNC(=N)N)C(=O)N[C@@H](CCCCN)C(=O)N[C@H](C(=O)N[C@@H](Cc1ccccc1)C(=O)N[C@@H](Cc1ccc(O)cc1)C(=O)N[C@@H](CO)C(=O)N[C@H](C(=O)O)C(C)C)[C@@H](C)CC [3102.0538] (H-ILRKIFYSV-OH) | 10.00 |
| CC[C@H](C)[C@H](NC(=O)[C@H](Cc1ccc(O)cc1)NC(=O)[C@H](CCSC)NC(=O)[C@H](CC(C)C)NC(=O)[C@@H](N)CCC(=O)O)C(=O)N[C@@H](Cc1ccccc1)C(=O)N[C@@H](C)C(=O)N[C@@H](C)C(=O)N[C@@H](CC(C)C)C(=O)O [3102.0539] (H-ELMYIFAAL-OH) | 7.52 |
| CC[C@H](C)[C@H](NC(=O)[C@H](CO)NC(=O)[C@H](CC(C)C)NC(=O)[C@H](CCSC)NC(=O)[C@H](CO)NC(=O)[C@H](CCCNC(=N)N)NC(=O)[C@@H]1CCCN1C(=O)[C@@H](N)Cc1ccccc1)C(=O)N[C@@H](Cc1ccccc1)C(=O)O [3102.0543] (H-FPRSMLSIF-OH) | 8.00 |
| CSCC[C@H](N)C(=O)N[C@@H](CCCNC(=N)N)C(=O)N[C@@H](Cc1ccccc1)C(=O)N[C@@H](CCCCN)C(=O)N[C@@H](CCCCN)C(=O)N[C@@H](CCC(=O)O)C(=O)N[C@@H](CO)C(=O)N[C@@H](CO)C(=O)N[C@@H](CC(C)C)C(=O)O [3102.0545] (H-MRFKKESSL-OH) | 8.47 |
| CC[C@H](C)[C@H](NC(=O)[C@H](CO)NC(=O)[C@H](CC(C)C)NC(=O)[C@H](CC(C)C)NC(=O)[C@H](CCCNC(=N)N)NC(=O)[C@H](CCSC)NC(=O)[C@H](CCC(=O)O)NC(=O)[C@H](C)NC(=O)[C@@H](N)CO)C(=O)O [3102.0547] (H-SAEMRLLSI-OH) | 7.68 |
| CC(C)C[C@H](NC(=O)[C@H](CC(N)=O)NC(=O)[C@H](Cc1ccc(O)cc1)NC(=O)[C@H](Cc1ccccc1)NC(=O)[C@H](Cc1c[nH]cn1)NC(=O)[C@H](CC(=O)O)NC(=O)[C@H](CCCNC(=N)N)NC(=O)[C@H](CC(C)C)NC(=O)[C@@H](N)Cc1ccc(O)cc1)C(=O)O [3102.0548] (H-YLRDHFYNL-OH) | 8.08 |
| CC[C@H](C)[C@H](NC(=O)CNC(=O)[C@H](Cc1c[nH]cn1)NC(=O)[C@H](CCCNC(=N)N)NC(=O)[C@H](CCC(N)=O)NC(=O)[C@H](CC(C)C)NC(=O)[C@H](CCCCN)NC(=O)[C@@H](N)CO)C(=O)N[C@@H](CC(C)C)C(=O)O [3102.0549] (H-SKLQRHGIL-OH) | 7.80 |
| CC[C@H](C)[C@H](NC(=O)[C@@H](N)CO)C(=O)N[C@@H](Cc1c[nH]cn1)C(=O)N[C@@H](CCC(=O)O)C(=O)N[C@@H](CCCCN)C(=O)N[C@@H](Cc1ccccc1)C(=O)N[C@@H](Cc1c[nH]c2ccccc12)C(=O)N1CCC[C@H]1C(=O)N[C@@H](CC(C)C)C(=O)O [3102.0550] (H-SIHEKFWPL-OH) | 8.85 |
| CC[C@H](C)[C@H](NC(=O)[C@H](Cc1ccc(O)cc1)NC(=O)[C@H](C)NC(=O)[C@@H]1CCCN1C(=O)[C@@H](N)CCSC)C(=O)N[C@@H](CCCNC(=N)N)C(=O)N[C@@H](CC(N)=O)C(=O)N[C@H](C(=O)N[C@@H](CC(C)C)C(=O)O)[C@@H](C)O [3102.0553] | 8.85 |
| CC(C)[C@H](NC(=O)[C@H](Cc1ccccc1)NC(=O)[C@H](CS)NC(=O)[C@@H](NC(=O)[C@H](CCCCN)NC(=O)[C@H](CCCCN)NC(=O)[C@H](CCCCN)NC(=O)[C@H](CO)NC(=O)[C@@H](N)Cc1ccccc1)C(C)C)C(=O)O [3102.0556] (H-FSKKKVCFV-OH) | 8.22 |
| CSCC[C@H](NC(=O)[C@H](C)NC(=O)[C@@H](NC(=O)[C@@H](N)C(C)C)C(C)C)C(=O)N[C@@H](CCCNC(=N)N)C(=O)N[C@@H](Cc1c[nH]cn1)C(=O)N[C@@H](CC(C)C)C(=O)N[C@@H](CO)C(=O)N[C@@H](CC(C)C)C(=O)O [3102.0557] (H-VVAMRHLSL-OH) | 9.01 |
| CC[C@H](C)[C@H](NC(=O)[C@H](CCCNC(=N)N)NC(=O)[C@H](CCCCN)NC(=O)[C@H](CCSC)NC(=O)[C@@H](NC(=O)[C@@H](N)CC(N)=O)C(C)C)C(=O)N[C@@H](CC(N)=O)C(=O)N[C@@H](CS)C(=O)N[C@@H](Cc1ccccc1)C(=O)O [3102.0558] (H-NVMKRINCF-OH) | 7.70 |
| CC[C@H](C)[C@H](NC(=O)[C@H](Cc1ccccc1)NC(=O)[C@H](Cc1ccccc1)NC(=O)[C@@H](N)CCSC)C(=O)N[C@@H](CCCNC(=N)N)C(=O)N[C@@H](Cc1ccccc1)C(=O)NCC(=O)N[C@@H](CCCCN)C(=O)N[C@@H](CCSC)C(=O)O [3102.0559] (H-MFFIRFGKM-OH) | 7.49 |
| CSCC[C@H](NC(=O)[C@H](C)NC(=O)[C@H](CC(C)C)NC(=O)[C@H](CO)NC(=O)[C@H](CCCCN)NC(=O)[C@H](CCSC)NC(=O)[C@H](CCCNC(=N)N)NC(=O)[C@H](CCCCN)NC(=O)[C@@H](N)CC(=O)O)C(=O)O [3102.0560] (H-DKRMKSLAM-OH) | 8.00 |
| CC[C@H](C)[C@H](NC(=O)[C@H](C)NC(=O)[C@H](CC(C)C)NC(=O)[C@@H](NC(=O)[C@H](CCCCN)NC(=O)[C@H](CCCNC(=N)N)NC(=O)[C@H](CCCCN)NC(=O)[C@H](CC(N)=O)NC(=O)[C@@H](N)CO)C(C)C)C(=O)O [3102.0561] (H-SNKRKVLAI-OH) | 8.72 |
| CC(C)C[C@H](NC(=O)[C@H](CS)NC(=O)[C@H](CCC(=O)O)NC(=O)[C@H](CCCCN)NC(=O)[C@H](Cc1c[nH]cn1)NC(=O)[C@H](CC(C)C)NC(=O)[C@H](CCCNC(=N)N)NC(=O)[C@H](CC(N)=O)NC(=O)[C@@H](N)CCC(=O)O)C(=O)O [3102.0562] (H-ENRLHKECL-OH) | 7.14 |
| C[C@H](NC(=O)[C@H](CCCCN)NC(=O)[C@H](Cc1ccccc1)NC(=O)[C@H](CCCCN)NC(=O)[C@H](CC(=O)O)NC(=O)[C@H](CCCNC(=N)N)NC(=O)[C@H](CC(N)=O)NC(=O)[C@@H](N)Cc1ccc(O)cc1)C(=O)N[C@@H](Cc1ccccc1)C(=O)O [3102.0564] (H-YNRDKFKAF-OH) | 7.70 |
| CC(C)C[C@H](NC(=O)[C@H](Cc1ccccc1)NC(=O)[C@H](C)NC(=O)[C@H](Cc1ccccc1)NC(=O)[C@H](CCCNC(=N)N)NC(=O)[C@H](Cc1ccc(O)cc1)NC(=O)[C@H](CCCNC(=N)N)NC(=O)[C@H](CC(N)=O)NC(=O)[C@@H](N)CC(N)=O)C(=O)O [3102.0568] (H-NNRYRFAFL-OH) | 7.51 |
| CC(C)[C@H](NC(=O)[C@H](CC(N)=O)NC(=O)[C@H](C)NC(=O)[C@H](Cc1ccccc1)NC(=O)[C@H](CCCCN)NC(=O)[C@H](CCCCN)NC(=O)[C@H](Cc1c[nH]cn1)NC(=O)[C@H](CCCNC(=N)N)NC(=O)[C@@H](N)CC(N)=O)C(=O)O [3102.0572] (H-NRHKKFANV-OH) | 7.44 |
| CC[C@H](C)[C@H](NC(=O)[C@@H]1CCCN1C(=O)[C@@H](NC(=O)[C@H](Cc1c[nH]cn1)NC(=O)[C@H](Cc1ccc(O)cc1)NC(=O)[C@H](CCCCN)NC(=O)[C@H](CCCNC(=N)N)NC(=O)[C@@H](N)Cc1ccc(O)cc1)C(C)C)C(=O)N[C@@H](CCSC)C(=O)O [3102.0573] (H-YRKYHVPIM-OH) | 7.21 |
| CC[C@H](C)[C@H](NC(=O)[C@H](CCCNC(=N)N)NC(=O)[C@H](CCCNC(=N)N)NC(=O)[C@H](CCSC)NC(=O)[C@H](CC(C)C)NC(=O)[C@H](C)NC(=O)[C@@H](N)CC(N)=O)C(=O)N[C@@H](C)C(=O)N[C@H](C(=O)O)C(C)C [3102.0577] (H-NALMRRIAV-OH) | 7.77 |
| CC[C@H](C)[C@H](NC(=O)[C@H](Cc1ccc(O)cc1)NC(=O)[C@@H](NC(=O)[C@H](CCCCN)NC(=O)[C@H](CCCCN)NC(=O)[C@H](Cc1ccccc1)NC(=O)[C@H](CCCNC(=N)N)NC(=O)[C@@H](N)CO)C(C)C)C(=O)N[C@@H](CC(C)C)C(=O)O [3102.0579] (H-SRFKKVYIL-OH) | 7.12 |
| CC[C@H](C)[C@H](NC(=O)[C@H](Cc1c[nH]cn1)NC(=O)[C@H](Cc1ccccc1)NC(=O)[C@H](CCCCN)NC(=O)[C@H](CC(C)C)NC(=O)[C@H](CCCNC(=N)N)NC(=O)[C@H](CS)NC(=O)[C@@H](N)Cc1c[nH]c2ccccc12)C(=O)N[C@H](C(=O)O)C(C)C [3102.0584] (H-WCRLKFHIV-OH) | 7.09 |
| CC[C@H](C)[C@H](NC(=O)[C@H](CO)NC(=O)[C@@H](NC(=O)[C@H](CC(C)C)NC(=O)[C@H](CCCCN)NC(=O)[C@H](CCSC)NC(=O)[C@H](CCCCN)NC(=O)[C@@H](NC(=O)[C@@H](N)CO)[C@@H](C)CC)C(C)C)C(=O)O [3102.0585] (H-SIKMKLVSI-OH) | 7.80 |
| CSCC[C@H](NC(=O)[C@H](CCC(N)=O)NC(=O)[C@@H](N)CO)C(=O)N[C@@H](CCC(=O)O)C(=O)N[C@@H](CCCNC(=N)N)C(=O)N[C@@H](Cc1ccccc1)C(=O)N[C@@H](CC(N)=O)C(=O)N[C@@H](CS)C(=O)N[C@@H](CO)C(=O)O [3102.0586] (H-SQMERFNCS-OH) | 7.41 |
| CC(C)C[C@H](NC(=O)[C@H](Cc1ccccc1)NC(=O)[C@H](Cc1ccc(O)cc1)NC(=O)[C@H](CC(C)C)NC(=O)[C@H](CCCNC(=N)N)NC(=O)[C@H](CCC(N)=O)NC(=O)[C@H](CC(C)C)NC(=O)[C@H](Cc1ccccc1)NC(=O)[C@@H](N)Cc1ccccc1)C(=O)O [3102.0589] (H-FFLQRLYFL-OH) | 8.17 |
| CC[C@H](C)[C@H](NC(=O)[C@@H](NC(=O)[C@H](CO)NC(=O)[C@H](CCCNC(=N)N)NC(=O)[C@H](CCC(=O)O)NC(=O)[C@H](CCCCN)NC(=O)[C@H](CCSC)NC(=O)[C@@H](N)CCSC)[C@@H](C)O)C(=O)N[C@@H](CC(C)C)C(=O)O [3102.0596] (H-MMKERSTIL-OH) | 7.46 |
| CC[C@H](C)[C@H](NC(=O)[C@H](CCCNC(=N)N)NC(=O)[C@H](CCC(=O)O)NC(=O)[C@H](CCCCN)NC(=O)[C@H](CCSC)NC(=O)[C@@H](N)CC(C)C)C(=O)N[C@@H](CO)C(=O)N[C@@H](CO)C(=O)N[C@@H](CCC(=O)O)C(=O)O [3102.0597] (H-LMKERISSE-OH) | 7.09 |
| CC[C@H](C)[C@H](NC(=O)[C@@H]1CCCN1C(=O)[C@H](CCCNC(=N)N)NC(=O)[C@H](CCCNC(=N)N)NC(=O)[C@H](CCC(=O)O)NC(=O)[C@H](CCCCN)NC(=O)[C@H](CCSC)NC(=O)[C@@H](N)[C@@H](C)O)C(=O)N[C@@H](CC(C)C)C(=O)O [3102.0600] (H-TMKERRPIL-OH) | 8.74 |

From paper PMC2248166, “Quantitative peptide binding motifs for 19 human and mouse MHC class I molecules derived using positional scanning combinatorial peptide libraries” (Immunome Research, 2008)
